Assays:
[1] = system: opioid induced hyperalgesia; assay: Human subject with morphine-induced hyperalgesia switched to compound (Example 3); type: in vivo; settings: morphine stopped, compound administered
[2] = system: nociceptive sensitization; assay: Subject with opioid-induced increased nociceptive sensitization switched to compound (Example 4); type: in vivo; settings: subject switched from opioid to pharmaceutical composition of compound
From the text: A subject is identified as having increased nociceptive sensitization due to being administered an opioid for pain relief. The subject is switched from the opioid to a pharmaceutical composition comprising Compound 140 or Compound 265. The subject's nociceptive sensitization is decreased while maintaining the pain relief.

[3] = system: mouse model of opioid induced hyperalgesia; settings: in vivo, sc

SMILES	opioid induced hyperalgesia in human subject after stopping morphine [1]	nociceptive sensitization after switch from opioid [2]	% non-responses to 10 applications of a 0.4 g von Frey filament (hyperalgesia induction) [3]
COc1ccsc1CNCC[C@@]1(c2ccccn2)CCOC2(CCCC2)C1 [Compound 140]	treated and reduced	decreased	–
COc1ccc2c3c1O[C@H]1C(=O)CC[C@@]4(O)[C@@H](C2)N(C)CC[C@]314 [Oxycodone]	–	–	decreased the % non-responses

— US10588889B2 (priority 2015, dated 2020)
